Patent publication US20240269223A1, “PROPHYLACTIC OR THERAPEUTIC AGENT FOR ACUTE RENAL FAILURE” (KYOWA HAKKO BIO CO., LTD., priority 2021, published 2024)

Tests used:
[1] = test system: rat ischemic acute renal injury model with unilateral nephrectomy; assay: Rat ischemic acute renal injury model with unilateral nephrectomy; assay type: in vivo; details: 200 mg/kg GSSSG intraperitoneal once a day x4 (day -4 to -1) before 40 min ischemia/reperfusion, versus control group
Protocol: GSSSG dihydrate produced by the method described in Patent Literature 1 was carefully crushed in a mortar for 10 minutes or longer. 1,333 mg (1,250 mg in terms of anhydride) of GSSSG dihydrate was weighed out. 1,333 mg of the crushed GSSSG dihydrate was added to 40 mL of a normal saline, and the mixture was stirred in a suspended state for 5 minutes. 0.25 to 0.50 g of sodium bicarbonate was added to the suspension and dissolved. This GSSSG solution was transferred to a measuring cylinder, and a normal saline was added to make up 50 mL to obtain a preparation solution (final concentration: 25 mg/mL). The obtained preparation solution was filtered with a filter (0.22 μm filter) and used as an administration sample.
In the test, 4-week old male SD rats (body weight 99 to 113 g)
were used. A 16-day preliminary breeding period was set for the obtained animals. Rats with no abnormalities in body weight change and general condition were used for grouping.
One kidney was removed from rats in which no abnormalities were observed after the preliminary breeding period by the following method. […]
The administration sample was administered into the peritoneal cavity of rats from which the right kidney was removed using a disposable polypropylene syringe with an injection needle. […] The amount of solution administered was calculated at 8 mL/kg based on the body weight on the first day of administration. […]

[2] = test system: rat bilateral kidney simultaneous ligation ischemic acute renal injury model; assay: Rat bilateral kidney simultaneous ligation ischemic acute renal injury model; assay type: in vivo; details: for Blood creatinine (CRE), before administration / Blood urea nitrogen (UN), before administration: baseline, day before administration; for Blood creatinine (CRE), before administration / Blood urea nitrogen (UN), before administration / GDF-15 (growth differentiation factor), 48 hours after ischemia reperfusion / Blood creatinine (CRE), 48 hours after ischemia reperfusion / Blood urea nitrogen (UN), 48 hours after ischemia reperfusion: plasma; for GDF-15 (growth differentiation factor), 48 hours after ischemia reperfusion: ELISA, control 1532 ± 246, placebo surgery 75.2 ± 4.3; for Blood creatinine (CRE), 48 hours after ischemia reperfusion: control 2.98 ± 0.56, placebo surgery 0.24 ± 0.01; for Blood urea nitrogen (UN), 48 hours after ischemia reperfusion: control 154.6 ± 19.5, placebo surgery 14.4 ± 1.1
Protocol: GSSSG dihydrate produced by the method described in Patent Literature 1 was carefully crushed in a mortar for 10 minutes or longer. A required amount of GSSSG dihydrate was weighed out. 0.5 w/v % methylcellulose (hereinafter abbreviated to as MC) was added to the crushed GSSSG dihydrate to prepare a suspension at a concentration of 10 mg/mL, and used as an administration sample for a high-dose administration group. The 10 mg/mL suspension was diluted with 0.5 w/v % MC to prepare a 4 mg/mL suspension, and used as an administration sample for a low-dose administration group.
In the test, 5-week old male SD rats (body weight 136 to 154 g) were used. An 8-day preliminary breeding period was set for the obtained animals. Rats with no abnormalities in body weight change and general condition were used for grouping.
The administration method was oral administration. Forced oral administration was performed using a disposable polypropylene syringe with a metal oral gavage tube for rats. The amount of solution administered was 5 ml/kg for both the high dose group and the low dose group based on the body weight closest to that of the day of administration. Administration was performed a total of 5 times: 1 day before, 2 days before, and 3 days before the ischemia treatment was performed, 1 hour before the ischemia treatment, and 2 hours after the reperfusion treatment.
The ischemia and reperfusion treatments were performed as follows. Anesthesia was performed by intraperitoneal administration of 45 mg/kg (1 mL/kg) of pentobarbital sodium and subcutaneous administration of 1 mg/kg (1 mL/kg) of butorphanol tartrate. Both dorsal parts where the kidneys were located were shaved. Then, the animals were treated on a heater mat. The surgical site was disinfected with about 70% of an alcohol and then incised using scissors. After both kidneys of the animals in Group 2 to Group 4 in Table 3 were exposed, the renal arteries and veins of the left kidney and the right kidney in order were clamped using Klemme (clip power 120 g) for 40 minutes. During clamping, the kidney was returned to the body in order to prevent kidney desiccation. During reperfusion, it was confirmed that the blood color of the kidney was returned to normal (red), and the laparotomy wound was closed and disinfected with Isodine. In the animals of the Group 1, both kidneys were exposed, and returned to the peritoneal cavity without ischemia treatment, and the laparotomy wound was closed and disinfected with Isodine 40 minutes after incision. After suturing, the rats were returned to the original breeding cage.
On the day before administration, without anesthesia, about 0.25 mL of blood was collected from the tail vein using a heparin Na-treated capillary (DRUMMOND). The collected blood was cooled on ice and then separated using a centrifuge (4° C., 2,200×g, for 15 minutes), and the UN concentration and the CRE concentration were measured using the obtained plasma.
48 hours after the reperfusion treatment, under isoflurane anesthesia, all blood was collected from abdominal aorta, using a winged injection needle and a heparin Na-treated vacuum blood collection tube. The collected blood was cooled on ice and then separated using a centrifuge (4° C., 2,150×g, for 15 minutes), and UN, CRE and GDF-15 (Mouse/Rat GDF-15 Quantikine ELISA Kit, R&D Systems, Inc) were measured using the obtained plasma.

Structure (SMILES): N[C@@H](CCC(=O)N[C@@H](CSSSC[C@H](NC(=O)CC[C@H](N)C(=O)O)C(=O)NCC(=O)O)C(=O)NCC(=O)O)C(=O)O [GSSSG, glutathione trisulfide]
- UN value (urea nitrogen concentration in plasma) ([1]; FIG. 1): decreased
- CRE value (creatinine concentration in plasma) ([1]; FIG. 2): decreased
- Blood creatinine (CRE), before administration ([2]; 20 mg/kg oral group): 0.21 ± 0.00 mg/dL
- Blood urea nitrogen (UN), before administration ([2]; 20 mg/kg oral group): 13.5 ± 0.5 mg/dL
- GDF-15 (growth differentiation factor), 48 hours after ischemia reperfusion ([2]; 20 mg/kg oral x5): 1673 ± 595 pg/mL
- Blood creatinine (CRE), 48 hours after ischemia reperfusion ([2]; 20 mg/kg oral x5): 2.29 ± 0.52 mg/dL
- Blood urea nitrogen (UN), 48 hours after ischemia reperfusion ([2]; 20 mg/kg oral x5): 136.8 ± 24.6 mg/dL
- therapeutic effect ([2]; 50 mg/kg oral administration group): a therapeutic effect was exhibited
- GDF-15 concentration, change versus control group ([2]; 50 mg/kg oral group, 48 hours after reperfusion): slightly decreased
- Blood creatinine (CRE), before administration ([2]; 50 mg/kg oral group): 0.20 ± 0.00 mg/dL
- Blood urea nitrogen (UN), before administration ([2]; 50 mg/kg oral group): 11.5 ± 0.4 mg/dL
- GDF-15 (growth differentiation factor), 48 hours after ischemia reperfusion ([2]; 50 mg/kg oral x5): 1327 ± 300 pg/mL
- Blood creatinine (CRE), 48 hours after ischemia reperfusion ([2]; 50 mg/kg oral x5): 2.07 ± 0.45 mg/dL
- Blood urea nitrogen (UN), 48 hours after ischemia reperfusion ([2]; 50 mg/kg oral x5): 106.2 ± 16.5 mg/dL
- UN value, change versus control group ([2]; GSSSG administration group, 20 and 50 mg/kg oral, 48 hours after reperfusion, Table 5): decreased in a dose-dependent manner
- CRE value, change versus control group ([2]; GSSSG administration group, 20 and 50 mg/kg oral, 48 hours after reperfusion, Table 6): decreased in a dose-dependent manner
